Results from US5248668A, “Use of purpurogallin and glycosides thereof in treating ischemia in mammals” (Wintek Consulting Ltd., priority 1992, dated 1993).

Experiments:
human erythrocytes = assay: protection of human erythrocytes from AAPH-induced lysis; type: cell-based; conditions: for IC50: Homo sapiens, Erythrocyte, 3 h, 100 mM AAPH, 10% RBC suspension, 37° C., 180 min, read-out: concentration of the agent that elicits 50% inhibition of cells lysis (IC50)
Procedure: In this example, experiments were conducted with human erythrocytes, subjecting them to free radicals generated by thermal activation of AAPH in a reaction mixture in the absence and in the presence of various amounts of purpurogallin or Trolox, to determine the cytoprotective capability of purpurogallin under these conditions.
Freshly obtained human erythrocytes were washed at least three times in saline with centrifugation at 1500 g×10 min. Then, a 20% suspension of RBC was prepared in the phosphate buffered saline (pH 7.4). (Miki et al., Arch. Biochem. Biophys. 258: 373-380, 1987).
The free radicals were generated by thermal activation of the azo-initiator2,2'-azo-bis(2-amidinopropane)HCl(AAPH). The reaction mixture (0.5 mL volumes) contained 10% red blood cell (RBC) suspension, AAPH (100 mM final level) and various levels of purpurogallin in 10 mM phosphate buffered saline. The above mixture was incubated at 37° C. for 180 min, while shaking gently. The, 35 μl aliquot of reaction mixture was taken out, diluted in 1.5 mL of saline, and centrifuged (1500 g for 10 min). The absorption of the supernatant at […] was read against a PBA blank. Similarly, the reaction mixture was treated with 1.5 mL of distilled water with sonication for 2 min to obtain complete hemolysis. Percent hemolysis was calculated according to Miki et al. (op. cit.).

[1] = test system: Human ventricular myocytes; assay: survival of ventricular myocytes after exposure to oxyradical (Table II); type: cell-based; conditions: for Mean survival time of human ventricular myocytes after exposure to oxyradical: control 2 minutes, mean of 5-7 replicates
From the text: Human ventricular myocytes were isolated and tested with purpurogallin and Trolox for protection against oxyradical damage using the methods and procedures described by Wu et al., op cit.
Each result reported in Table II is the mean of 5-7 closely agreeing replicates.

[2] = test system: Rat kidney mesangial cells; assay: survival of rat kidney mesangial cells exposed to XOD and hypoxanthine (Table III); type: cell-based; conditions: for Mean Time Survival of Cells Exposed to XOD and Hypoxanthine: XOD 66.7 IU/L, hypoxanthine 0.5 mM, control 5.7
From the text: Rat kidney mesangial cells were isolated and tested with purpurogallin versus Trolox over the same range of concentrations, for protection against oxyradical damage using methods and procedures described by Wu et al., op cit. […]

rat hepatocytes [3] = assay: survival of rat hepatocytes after exposure to oxyradical (Table I); type: cell-based; conditions: for Mean Survival Time of 10^5 Rat Hepatocytes After Exposure to Oxyradical: control about 6.5 minutes
From the text: In further studies, culturing the rat hepatocytes and testing for oxyradical damage using purpurogallin and Trolox additives according to the procedure of Wu et al. op. cit., and Clin. Chem. 36: 1172-1173 (abstract), 1990, the results given below in Table I were obtained.

rat livers = assay: partial hepatic ischemia-reperfusion in vivo; design: species or system Sprague-Dawley rats; conditions: for Mean Necrosis (% by weight): infused via penile vein, 24 h reperfusion, saline control 30.3, n=6
Procedure: In vivo studies were conducted on rat livers, to determine the effectiveness of purpurogallin as a cytoprotectant in partial hepatic ischemia-reperfusion.
There was used the same model as described in Wu et al. Hepatology 13: 575-580, (1991). In essence, the model involves the occlusion of blood vessels supplying to the left lateral, median, and Spigelian lobes of the rate liver by clamping the left portal vein, left hepatic artery and left bile duct. The right portal vein, hepatic artery and bile duct were left intact as an interal shunt. The occlusion was done in Sprague-Dawley rats (0.3-0.4 kg) which had fasted overnight. Approximately […] before the end of ischemia, either 3 mL of saline (control) or saline containing purpurogallin or Trolox (at the levels specified below) was infused into the animals via the penile vein over a 3 minute period. This was followed by reperfusion for 24 hours. Then, the extent of necrosis (based on wet weight of the liver) was quantified by a well established histochemical method (Frederiks et al., Exptl. Mol. Path 41: 119-125, 1984).

rat hepatocytes [4] = assay: time to necrose rat hepatocytes exposed to xanthine oxidase/hypoxanthine oxyradicals (FIG. 2); type: cell-based, rat (male Sprague-Dawley); conditions: 3 mM; XOD 66.7 IU/L, 2 mM hypoxanthine; control approximately 6 min
Procedure: In this example, experiments were conducted with rat hepatocytes, subjecting them to the action of free radicals in the presence and absence of purpurogallin, at various levels.
Hepatocytes were prepared from male Sprague-Dawley rats (400 g-450 g) according the method of Princen et al. J. Clin. Invest. 78: 1064-1071 (1986), except that the perfusion of the liver was done first with 250 mL of 0.5 mM EGTA and 10 MM HEPES buffer solution (pH 7.4) containing 142 mM NaCl and 6.7 mM KCL via gravity drip at 20 mL/min., then with 100 mL of magnesium-free Hank's Balanced Salt Solution containing 5 mM CaCl2 and 0.05% collagenase according to Seglen, Exp. Cell. Res. 82: 391-398 (1973). All other details were as described previously (Wu et al., Biochem. Cell Biol. 68, 1189-1194, 1990).
Free radical studies were done by removing the cell medium and adding to the cells 3 mL of 0.05M sodium phosphate-buffered saline (PBS) (pH 7.4) containing 66.7 IU/L of xanthine oxidase (XOD) and 2 mM hypoxanthine, the latter two being used to generate oxyradicals. The base for comparing the effect of different levels of purpurogallin was the time taken to cause necrosis in 95% of 10^5 cells of the same generation in each culture dish. […]
The results are shown graphically in FIG. 2. […] The data are expressed as means±SD (standard deviation). […]

water solubility = type: physicochemical; conditions: 4 mM prepared in PBS with brief sonication, pH adjusted to 7.40±0.05
heart = heart ischemia-reperfusion in vivo; design: species or system New Zealand white rabbits
Procedure: In this example, the cytoprotective effect of purpurogallin in vivo, in heart ischemia-reperfusion in rabbits was examined.
New Zealand white rabbits (3.0-3.5 kg by weight) were anaesthetized with intramuscular injection of Ketamine (35 mg/kg) and Atravet (0.4 mg/kg), and intravenous injection of atropine (0.1 mg/kg).
After shaving the frontal area of the animal, anaesthesia was maintained by performing tracheotomy and ventilating the animal with positive pressure respiration using a Harvard small animal respirator and a gas mixture of 2.5% ethrane (or enflurane) in oxygen. A midline sternotomy was done. The pericardium was opened and the heart was exposed. The main branch of the anterior ventricular coronary artery that supplies blood to a great part of the left ventricle and apex in rabbits (also referred to as the left circumflex coronary artery) was temporarily ligated with a 5-0 silk thread for 1 hour at the site between 1/2 to 2/3 from apex to the atrioventricular groove. Approximately 1 minute before releasing the occlusion, a 30-ml bolus of 1 mM test solution was injected through the right external jugular vein. In control animals, a 30-mL bolus of normal saline was given instead of the test solution. […] After this period, the heart was harvested, stained for enzyme activity with a tetrazolium dye and the areas of necrosis determined by planimetry. […]

IC50 (human erythrocytes)	SMILES	Mean survival time of human ventricular myocytes after exposure to oxyradical ([1]; 0.5 mM)	Mean survival time of human ventricular myocytes after exposure to oxyradical ([1]; 1.0 mM)	Mean survival time of human ventricular myocytes after exposure to oxyradical ([1]; 1.5 mM)	Mean survival time of human ventricular myocytes after exposure to oxyradical ([1]; 3.0 mM)	Mean Time Survival of Cells Exposed to XOD and Hypoxanthine ([2]; 0.13 mM)	Mean Time Survival of Cells Exposed to XOD and Hypoxanthine ([2]; 0.25 mM)	Mean Time Survival of Cells Exposed to XOD and Hypoxanthine ([2]; 0.50 mM)	Mean Time Survival of Cells Exposed to XOD and Hypoxanthine ([2]; 1.00 mM)	Mean Survival Time of 10^5 Rat Hepatocytes After Exposure to Oxyradical (rat hepatocytes [3]; 0.5 mM)	Mean Survival Time of 10^5 Rat Hepatocytes After Exposure to Oxyradical (rat hepatocytes [3]; 1.0 mM)	Mean Survival Time of 10^5 Rat Hepatocytes After Exposure to Oxyradical (rat hepatocytes [3]; 2.0 mM)	also measured
~740 µM	Cc1c(C)c2c(c(C)c1O)CCC(C)(C(=O)O)O2 (centres unmarked) [Trolox, 6-hydroxy-2,5,7,8-tetramethylchroman-2-carboxylic acid, reference compound]	3.5 min	4.5 min	4.8 min	5.3 min	6.4 min	6.6 min	7.4 min	7.8 min	12 min	13 min	16 min	
120 µM	O=c1c(O)cccc2cc(O)c(O)c(O)c12 [Purpurogallin, 2,3,4,6-tetrahydroxy-5H-benzocyclohepten5-one]	14 min	> 60 min	> 60 min	> 60 min	11.5 min	13.4 min	16.0 min	19.4 min	18 min	20 min	31 min	effectiveness versus Trolox in protecting cells from lysis (from IC50) (human erythrocytes; versus Trolox): six; protection of myocytes compared with Trolox ([1]; especially at levels greater than 0.5 mM): at least an order of magnitude more protective of myocytes than Trolox; Mean Necrosis (% by weight) (rat livers; 4.4 μmoles/kg body weight, SD 4.6): 17.7 % by weight; % Salvage of Liver (rat livers; 4.4 μmoles/kg body weight, p value vs control <0.05): 42%; Mean Necrosis (% by weight) (rat livers; 8.8 μmoles/kg body weight, SD 4.9): 7.3 % by weight; % Salvage of Liver (rat livers; 8.8 μmoles/kg body weight, p value vs control 0.005): 76%; Mean Necrosis (% by weight) (rat livers; 18 μmoles/kg body weight, SD 1.1): 4.4 % by weight; % Salvage of Liver (rat livers; 18 μmoles/kg body weight, p value vs control 0.001): 86%; time taken to necrose 100,000 hepatocytes (rat hepatocytes [4]): up to 30 min; water solubility (water solubility): partly water-soluble; protection of kidney cells compared with Trolox ([2]; over all the levels examined): protects the kidney cells substantially better than Trolox; Mean % (± SD) organ necrosis in area at risk (heart; 8.6-10 μmoles/kg body weight (30-ml bolus of 1 mM), right external jugular vein, 3-hour reperfusion, saline control 46.6 ± 10, p <0.001): 11.8 ± 6.2%; Mean & organ salvage (heart; 8.6-10 μmoles/kg body weight, p <0.001 vs control): 75%; protection of rat hepatocytes compared with Trolox (rat hepatocytes [3]; at equivalent concentrations): clearly more protective of rat hepatocytes than Trolox
